The nature of data set [1]: Calcein AM cytotoxicity assay, CEM. Format: cell-based. The note with it: human, CEM T-lymphoblastic leukemia cells, IC50 > 50 µM means inactive, read-out: Cytotoxic activity IC50. As for the experimental part:
(§1) The effect of the prepared BRs derivatives on the viability (in Calcein AM assays) of BJ human fibroblasts (as an example of a “normal” cell line) and human cancer cell lines of various histopathological origins, including: T-lymphoblastic leukemia CEM, breast carcinoma MCF7 and cervical carcinoma cell line HeLa, was also studied. Cells of all these lines were exposed to six 3-fold dilutions of each drug for 72 h prior to determination of cell survival. The IC50 (concentration leading to 50% inhibition of viability) values obtained from the Calcein AM cytotoxicity assay were calculated. […] All tested BR nitrogen-containing derivatives had no detectable activity, even when tested in concentrations of up to 50 µM.
(§2) The screening cell lines: T-lymphoblastic leukemia CEM; breast carcinoma MCF7 (estrogen-sensitive); cervical carcinoma cell line HeLa; and human foreskin fibroblasts BJ, were obtained from the American Type Culture Collection (Manassas, VA, USA). Cells were cultured in DMEM (Dulbecco’s Modified Eagle Medium, Sigma, St. Louis, MO, USA). Media used were supplemented with 10% fetal bovine serum, 2mM L-glutamine and 1% penicillin–streptomycin. The cell lines were maintained under standard cell culture conditions at 37 °C and 5% CO2 in a humid environment.
(§3) Cells were subcultured twice or three times a week using the standard trypsinization procedure. Cytotoxicity in cancer cell lines after 72 h was determined as described earlier. Control cultures were treated with DMSO alone, and the final concentration of DMSO in the mixture never exceeded 0.6%. Six serial 3-fold dilutions of the test substances were added at time zero in 20 μL aliquots to the microtiter plate wells and the highest final concentration in the wells was 50 μM.
(§4) Table S3: Cytotoxic activities, IC50 (µM/L)a, of compounds in three tumor and one normal fibroblast
(§5) Compound CEM MCF7 HeLa BJ
(§6) a The lowest concentration that kills 50% of cells.
(§7) b Increase of cell proliferation.

Data set [2] can be described thus: Calcein AM cytotoxicity assay, HeLa. Format: cell-based. The note with it: human, HeLa cervical carcinoma cells, IC50 > 50 µM means inactive, read-out: Cytotoxic activity IC50. On the procedure:
as §1, §2, §3, §4, §5, §6, §7

The nature of data set [3]: Calcein AM cytotoxicity assay, MCF7. Format: cell-based. The note with it: human, MCF7 breast carcinoma cells (estrogen-sensitive), MCF7, 72 h, IC50 > 50 µM means inactive, read-out: Cytotoxic activity IC50. On the procedure: as §1, §2, §3, §4, §5, §6, §7
Data set [4] is described as follows: Calcein AM cytotoxicity assay, BJ. The note with it: human, BJ foreskin fibroblasts (normal cell line), IC50 > 50 µM means inactive, read-out: Cytotoxic activity IC50. Format: cell-based. As for the experimental part: as §1, §2, §3, §4, §5, §6, §7
The subject of data set [5] is Arabidopsis thaliana L. (Columbia ecotype, Col-0) seedlings. Put plainly: Arabidopsis root sensitivity bioassay. The note with it: for root length, mean: 7-day-old seedlings; for elongation of roots (growth-promoting activity) compared to the control: low concentrations (0.1 and 1 nM). Format: in vivo. On the procedure: Several bioassays such as the first bean internode, root growth and rice lamina inclination have been developed to evaluate the growth-promoting activity of BR derivatives. In this work, the activity of new BR analogues was evaluated using the Arabidopsis root sensitivity test because of its simplicity and high sensitivity for BRs.. The characteristic effect of exogenously applied BRs on light-grown Arabidopsis is dose-dependent—BRs in higher concentrations cause inhibition of root growth; vice versa, low concentrations are stimulating. The results obtained for 24-epiBL, which was used as a positive control, and the BR derivatives are shown in Figure 2, Figure 3 and Figure S21. […] A similar trend was shown for dimethylammonium hydrochloride 22a and morpholinium hydrochloride 22e with a long side chain. For numerical values of the average, SD and p-value, see Table S2.
The biological activity of the new BRs derivatives was tested by an Arabidopsis sensitivity bioassay which was performed according to [28]. Briefly, seedlings of Arabidopsis thaliana L. (Columbia ecotype, Col-0) were stratified for 2 days at 4 °C and germinated on vertical half-strength Murashige and Skoog (1% w/v sucrose) agar at 22 °C in a 16 h/8 h light–dark cycle. The plates contained concentrations of 24-epiBL (as positive control) and BR derivatives ranging from 0.1 to 10 nM, respectively 100 nM (for selected derivatives only). After 7 days, roots were straightened on solid media plates and scanned with an Epson high-resolution scanner. The entire root length was measured with ImageJ (http://rsbweb.nih.gov/ij/). For each treatment, more than 15 seedlings were analyzed in two biological repeats, and p-values were calculated with the two-tailed Student t-test using Excel software.
Figure 2 Effect of selected brassinosteroid derivatives on the inhibition of Arabidopsis root length. Seven-day-old Arabidopsis thaliana seedlings (Columbia ecotype, Col-0) were treated with DMSO as control/24epiBL/BR short side chain derivatives; (A)—amides, (B)—amines, (C)—ammonium hydrochlorides. For each treatment, more than 15 seedlings were analyzed in two biological repeats. Error bars represent SD. Asterisks represent significant changes (t-test); * represents p-value < 0.05, in comparison to control.
Figure 3 Effect of selected brassinosteroid derivatives on the inhibition of Arabidopsis root length. Seven-day-old Arabidopsis thaliana seedlings (Columbia ecotype, Col-0) were treated with DMSO as control/24epiBL/BR long side chain derivatives; (A)—amides, (B)—ammonium hydrochlorides. For each treatment, more than 15 seedlings were analyzed in two biological repeats. Error bars represent SD. Asterisks represent significant changes (t-test); * represents p-value < 0.05, in comparison to control.
Table S2: Data for figure 2, 3, and S21. P value <0.05(t-test), comparison to control.
control (mean ± SD) 16.3 ± 1.21
*only selected compounds were tested
mean(mm) SD t-test mean (mm) SD t-test mean (mm) SD t-test mean (mm) SD t-test
(1 picture or pasted object on this page, not shown here)

Where [6] appears, read: 100 nM (only selected compounds), control 14.61 ± 0.85.

Entries after “also recorded” stand apart in the source; their conditions may differ.

Regarding `C[C@H](C(=O)N1CCOCC1)[C@H]1CC[C@H]2[C@@H]3CC(=O)[C@H]4C[C@H](O)[C@H](O)C[C@]4(C)[C@H]3CC[C@]12C` [8e, 4-((20S)-2α,3α-dihydroxy-6-oxo-5α-pregnane-20-carbonyl)morpholine], the melting point was > 270 °C (dec.). The IC50 at 72 h in data set [1] is greater than 50 µM. In addition, the IC50 at 72 h in data set [2] was greater than 50 µM. Further, the IC50 at 72 h in data set [3] is greater than 50 µM. The half-maximal inhibitory concentration (IC50) at 72 h in data set [4] is greater than 50 µM. Further, in data set [5] (0.1 nM, control 16.3 ± 1.21), the “root length, mean” value stood at 17.77 mm. Moreover, the “root length, mean” value in data set [5] (1 nM, control 16.3 ± 1.21) was found to be 17.44 mm. Also, the “root length, mean” value in data set [5] (10 nM, control 16.3 ± 1.21) was determined as 15.16 mm. Moreover, the “elongation of roots (growth-promoting activity) compared to the control” value in data set [5] is listed as “slight elongation of roots; also recorded: interesting growth-promoting activity”.

Consider `CCN(CC)C[C@H](O)[C@H](O)[C@@H](C)[C@H]1CC[C@H]2[C@@H]3CC(=O)[C@H]4C[C@H](O)[C@H](O)C[C@]4(C)[C@H]3CC[C@]12C.Cl` [22b, N,N-diethyl-((20S,22R,23S)-2α,3α,22,23-tetrahydroxy-6-oxo-5α-cholan-24-yl)aminium chloride], for which the melting point was > 250 °C (dec.). In data set [1], the IC50 at 72 h is greater than 50 µM. In addition, the IC50 at 72 h in data set [2] is greater than 50 µM. Further, the IC50 at 72 h in data set [3] was greater than 50 µM. The IC50 at 72 h in data set [4] was greater than 50 µM. Also, in data set [5] (0.1 nM, control 16.3 ± 1.21), the “root length, mean” value worked out at 14.51 mm. The “root length, mean” value in data set [5] (1 nM, control 16.3 ± 1.21) came to 15.32 mm. Also, the “root length, mean” value in data set [5] (10 nM, control 16.3 ± 1.21) was determined as 15.48 mm. The “root length, mean” value in data set [5] (setting [6]) is recorded as 15.160 mm. Also, in data set [5] (tested 0.1 to 10 nM, selected derivatives also 100 nM), the “inhibitory effect on Arabidopsis root growth” value is “the same effect only at low concentrations”.

Regarding `CCN(CC)C(=O)[C@@H](C)[C@H]1CC[C@H]2[C@@H]3CC(=O)[C@H]4C[C@H](O)[C@H](O)C[C@]4(C)[C@H]3CC[C@]12C` [8b, N,N-diethyl-(20S)-2α,3α-dihydroxy-6-oxo-5α-pregnane-20-carboxamide], the melting point was > 200 °C (dec.). Moreover, the IC50 at 72 h in data set [1] was greater than 50 µM. Besides, the IC50 at 72 h in data set [2] was greater than 50 µM. The IC50 at 72 h in data set [3] was greater than 50 µM. The IC50 at 72 h in data set [4] is greater than 50 µM. Besides, the “root length, mean” value in data set [5] (0.1 nM, control 16.3 ± 1.21) is reported as 18.41 mm. Also, the “root length, mean” value in data set [5] (1 nM, control 16.3 ± 1.21) came out at 15.15 mm. Also, in data set [5] (10 nM, control 16.3 ± 1.21), the “root length, mean” value was 16.95 mm. In addition, the “root length, mean” value in data set [5] (setting [6]) is 13.836 mm. Also, the “elongation of roots (growth-promoting activity) compared to the control” value in data set [5] is given as “slight elongation of roots; also recorded: interesting growth-promoting activity”.

With `C[C@H](CN1CCCC1)[C@H]1CC[C@H]2[C@@H]3CC(=O)[C@H]4C[C@H](O)[C@H](O)C[C@]4(C)[C@H]3CC[C@]12C` [15c, (20S)-20-(pyrrolidin-1-ylmethyl)-2α,3α-dihydroxy-5α-pregnane-6-one], the melting point was > 240 °C (dec.). Further, in data set [1], the IC50 at 72 h is greater than 50 µM. Besides, in data set [2], the IC50 at 72 h is greater than 50 µM. Moreover, the IC50 at 72 h in data set [3] is greater than 50 µM. The IC50 at 72 h in data set [4] was greater than 50 µM. The “root length, mean” value in data set [5] (0.1 nM, control 16.3 ± 1.21) is 16.78 mm. Moreover, the “root length, mean” value in data set [5] (1 nM, control 16.3 ± 1.21) stood at 14.37 mm. In addition, the “root length, mean” value in data set [5] (10 nM, control 16.3 ± 1.21) is reported as 17.21 mm.

Consider `C[C@H]([C@@H](O)[C@@H](O)CN1CCCCC1)[C@H]1CC[C@H]2[C@@H]3CC(=O)[C@H]4C[C@H](O)[C@H](O)C[C@]4(C)[C@H]3CC[C@]12C.Cl` [22d, 1-((20S,22R,23S)-2α,3α,22,23-tetrahydroxy-6-oxo-5α-cholan-24-yl)piperidinium chloride], for which the melting point was > 250 °C (dec.). Also, the IC50 at 72 h in data set [1] is greater than 50 µM. The IC50 at 72 h in data set [2] was greater than 50 µM. Moreover, the IC50 at 72 h in data set [3] is greater than 50 µM. Further, the IC50 at 72 h in data set [4] is greater than 50 µM. Besides, the “root length, mean” value in data set [5] (0.1 nM, control 16.3 ± 1.21) worked out at 15.48 mm. Also, the “root length, mean” value in data set [5] (1 nM, control 16.3 ± 1.21) was determined as 15.97 mm. In addition, the “root length, mean” value in data set [5] (10 nM, control 16.3 ± 1.21) was determined as 16.62 mm.

Usually IC50 stands for the concentration that inhibits the measured activity by half. A word on the melting point: it is the temperature of the solid-liquid transition.

Values taken from article PMC7795425, “Synthesis and Biological Activity of Brassinosteroid Analogues with a Nitrogen-Containing Side Chain” (International Journal of Molecular Sciences, 2020).
